Assay results taken from US12453708B2, “Aminonaphthoquinone compounds for treatment and/or prevention of fibrosis diseases” (CALGENT BIOTECHNOLOGY CO., LTD., priority 2015, dated 2025).

Experiments:
[1] = test system: TGF-β-induced collagen expression in WI-38 cells; assay: TGF-β-induced collagen expression in WI-38 cells (Western blot, immunofluorescence); format: cell-based, human; details: WI-38 lung fibroblasts, 0.3, 1, 3 or 10 μM, TGF-β (10 ng/mL)
Procedure: (§1) FIGS. 4 (A), (B) and (C) show the effect of L056 on TGF-β-induced collagen expression in WI-38 cells. WI-38 lung fibroblasts were incubated with different concentrations of L056 (0.3, 1, 3 or 10 μM) for 30 min before and during incubation for 2 h with TGF-β (10 ng/mL). […] (A), Western blot plot; (B), Quantitative assay of Western blot; (C), Immunofluorescence plot. WI-38 cells, a normal human embryonic lung fibroblast cell line, were obtained from American Type Culture Collection (Manassas, VA). Cells were grown in MEM nutrient mixture, containing 10% FCS, 2 mM L-glutamine, 0.1 mM NEAA, 1 mM sodium pyruvate, 50 U/ml penicillin G, and 100 µg/ml streptomycin, in a humidified 37° C. incubator with 5% CO2 Cells were used between passages 18 and 30 for all experiments. After reaching confluence, cells were seeded onto 6-cm dishes for immunoblotting. Western blot analyses were performed as described previously (Chen B C, Chang Y S, Kang J C, Hsu M J, Sheu J R, Chen T L, et al. Peptidoglycan induces nuclear factor-kappaB activation and cyclooxygenase-2 expression via Ras, Raf-1, and ERK in RAW 264.7 macrophages. J Biol Chem 2004; 279:20889-97). […] The immunoreactivity was detected using enhanced chemiluminescence (ECL) following the manufacturer's instructions. Quantitative data were obtained using a computing densitometer with scientific imaging systems (Kodak, Rochester, NY). […]

[2] = test system: TGF-β-induced α-SMA expression in WI-38 cells; assay: TGF-β-induced α-SMA expression in WI-38 cells (Western blot); format: cell-based, human; details: WI-38 lung fibroblasts, 0.3, 1, 3 or 10 μM for 30 min before and during incubation with TGF-β (10 ng/mL)
Procedure: as §1, with “5 (A) and” for “4 (A),”, “(B)” for “(B) and (C)”, “α-SMA” for “collagen”, “blot” for “blot; (C), Immunofluorescence plot.”

[3] = test system: CCl4-induced liver fibrosis in mice; assay: CCl4-induced liver fibrosis in mice (therapeutic model); format: in vivo, C57BL/6JNarl mice; details: for fibrosis score, Mean ± SEM: day 43
Procedure: (A) sirius red stain; (B), the inhibition of MPTOL056 on CCl4-induced liver fibrosis. […] C57BL/6JNarl mice (8 weeks) were treated with CCl4 (1 μl/μg/BW, q.w.) or PBS (1 μl/μg/BW, q.w.) by i.p. injection for 6 weeks. MPTOL056 (25, 50 and 100 mg/kg/day, q.d.) and silymarin (200 mg/kg/day, q.d.) were administered orally to CCl4-injected mice from 2 weeks to 6 weeks. On day 43, the mice were sacrificed, and the α-SMA analysis of liver tissue was performed by IHC staining (original magnification, x100) (see FIG. 11). […]

[4] = CCl4 mice, 25 mg (mg/kg/day, q.d., oral, weeks 2 to 6)
[5] = CCl4 mice, 50 mg (mg/kg/day, q.d., oral, weeks 2 to 6)
[6] = CCl4 mice, 100 mg (mg/kg/day, q.d., oral, weeks 2 to 6)

For `O=C(Nc1ccncc1)c1ccc(CNC2=C(Cl)C(=O)c3ccccc3C2=O)cc1` [Example L056, 4-(((3-chloro-1,4-dioxo-1,4-dihydronaphthalen-2-yl)amino)methyl)-N-(pyridin-4-yl)benzamide], the TGF-β-induced collagen production/expression [1] was “significantly inhibited”, the TGF-β-induced collagen production/expression ([1]; listed as MPTOL056) was “inhibited” and the “TGF-β-induced α-SMA expression” value [2] was “significantly inhibited”. The “Efficacy % (reduction of fibrosis score)” value [3, 4] was 45.00%, the “fibrosis score, Mean ± SEM” value [3, 4] was 2.40 ± 0.53 and the “Efficacy % (reduction of fibrosis score)” value [3, 5] was 46.67%. For the same compound, the “fibrosis score, Mean ± SEM” value [3, 5] was 2.35 ± 0.25, the “Efficacy % (reduction of fibrosis score)” value [3, 6] was 68.33% and the “fibrosis score, Mean ± SEM” value [3, 6] was 1.70 ± 0.18. The “efficacy in inhibition compared with silymarin” value ([3]; CCl4 mice, silymarin 200 mg/kg/day, FIG. 10(B)) was “higher than silymarin” and the “inhibition of CCl4-induced liver fibrosis (in words)” value ([3]; mice, 25, 50 and 100 mg/kg/day oral, FIG. 10(B)) was “dose-dependent”.
